Reference: PubChem BioAssay (NCI)
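Following 48 hours of exposure in 96-well plates, responses at five concentrations were used to interpolate endpoints linearly. The concentration for full growth arrest is given as TGI.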

Tested on: KM20L2 colon
Test: inhibition of tumour cell growth, NCI panel, 48 h

Point of comparison: COc1cc2c(cc1O)[C@H](C)C(c1ccc(OC)c(OC)c1)O2 (stereo partly drawn), TGI 38.2 µM. Against it:
- O=S1C(=c2ccc(=C3Sc4ccccc4S3)cc2)Sc2ccccc21 (stereo not drawn) — within 1.5-fold, 31.9 µM
- N#CC(C(=O)CCC(=O)Nc1ccc(Cl)c(Cl)c1)c1ccccc1 (stereo not drawn) — higher, > 100 µM
- O=c1c2cccnc2ncn1CCN1CCCCC1 — higher, > 100 µM
- O=C(Nc1c(O)[nH]c(=S)[nH]c1=O)c1ccccc1 — higher, > 100 µM

Tested on: LOX IMVI melanoma
Test: inhibition of tumour cell growth, NCI panel, 48 h

Point of comparison: COc1cc2c(cc1O)[C@H](C)C(c1ccc(OC)c(OC)c1)O2 (stereo partly drawn), TGI 16 µM. Against it:
- O=S1C(=c2ccc(=C3Sc4ccccc4S3)cc2)Sc2ccccc21 (stereo not drawn) — 2-fold higher, 32.2 µM
- O=c1c2cccnc2ncn1CCN1CCCCC1 — higher, > 100 µM
- O=C(Nc1c(O)[nH]c(=S)[nH]c1=O)c1ccccc1 — higher, > 100 µM
- COc1ccc(C2c3cc4c(cc3OC3(OC)COC(=O)C23)OCO4)c(OC)c1 (stereo not drawn) — higher, > 100 µM
- CC1=C/C(=N\NC(N)=S)C(C(O)(C(F)(F)F)C(F)(F)F)C(C)(C)C1 (stereo not drawn) — not separable, > 10 µM

Tested on: LXFL 529 NSCLC
Test: inhibition of tumour cell growth, NCI panel, 48 h

Point of comparison: COc1cc2c(cc1O)[C@H](C)C(c1ccc(OC)c(OC)c1)O2 (stereo partly drawn), TGI 21.5 µM. Against it:
- O=S1C(=c2ccc(=C3Sc4ccccc4S3)cc2)Sc2ccccc21 (stereo not drawn) — higher, > 100 µM
- O=c1c2cccnc2ncn1CCN1CCCCC1 — higher, > 100 µM
- O=C(Nc1c(O)[nH]c(=S)[nH]c1=O)c1ccccc1 — higher, > 100 µM

Tested on: M14 melanoma
Test: inhibition of tumour cell growth, NCI panel, 48 h

Point of comparison: O=S1C(=c2ccc(=C3Sc4ccccc4S3)cc2)Sc2ccccc21 (stereo not drawn), TGI 29 µM. Against it:
- N#CC(C(=O)CCC(=O)Nc1ccc(Cl)c(Cl)c1)c1ccccc1 (stereo not drawn) — higher, > 100 µM
- O=c1c2cccnc2ncn1CCN1CCCCC1 — higher, > 100 µM
- O=C(Nc1c(O)[nH]c(=S)[nH]c1=O)c1ccccc1 — higher, > 100 µM
- COc1ccc(C2c3cc4c(cc3OC3(OC)COC(=O)C23)OCO4)c(OC)c1 (stereo not drawn) — within 1.5-fold, 25.8 µM
- COc1cc2c(cc1O)[C@H](C)C(c1ccc(OC)c(OC)c1)O2 (stereo partly drawn) — 1.8-fold lower, 15.9 µM
- CC1=C/C(=N\NC(N)=S)C(C(O)(C(F)(F)F)C(F)(F)F)C(C)(C)C1 (stereo not drawn) — not separable, > 10 µM

Tested on: M19-MEL melanoma
Test: inhibition of tumour cell growth, NCI panel, 48 h

Point of comparison: COc1cc2c(cc1O)[C@H](C)C(c1ccc(OC)c(OC)c1)O2 (stereo partly drawn), TGI 12.2 µM. Against it:
- O=S1C(=c2ccc(=C3Sc4ccccc4S3)cc2)Sc2ccccc21 (stereo not drawn) — 3.1-fold higher, 38.3 µM
- N#CC(C(=O)CCC(=O)Nc1ccc(Cl)c(Cl)c1)c1ccccc1 (stereo not drawn) — higher, > 100 µM
- O=c1c2cccnc2ncn1CCN1CCCCC1 — higher, > 100 µM
- O=C(Nc1c(O)[nH]c(=S)[nH]c1=O)c1ccccc1 — higher, > 100 µM

Tested on: MALME-3M melanoma
Test: inhibition of tumour cell growth, NCI panel, 48 h

Point of comparison: COc1cc2c(cc1O)[C@H](C)C(c1ccc(OC)c(OC)c1)O2 (stereo partly drawn), TGI 22.8 µM. Against it:
- O=S1C(=c2ccc(=C3Sc4ccccc4S3)cc2)Sc2ccccc21 (stereo not drawn) — higher, > 100 µM
- N#CC(C(=O)CCC(=O)Nc1ccc(Cl)c(Cl)c1)c1ccccc1 (stereo not drawn) — higher, > 100 µM
- O=c1c2cccnc2ncn1CCN1CCCCC1 — higher, > 100 µM
- O=C(Nc1c(O)[nH]c(=S)[nH]c1=O)c1ccccc1 — higher, > 100 µM
- COc1ccc(C2c3cc4c(cc3OC3(OC)COC(=O)C23)OCO4)c(OC)c1 (stereo not drawn) — higher, > 100 µM
- CC1=C/C(=N\NC(N)=S)C(C(O)(C(F)(F)F)C(F)(F)F)C(C)(C)C1 (stereo not drawn) — not separable, > 10 µM

Tested on: MCF7 breast
Test: inhibition of tumour cell growth, NCI panel, 48 h

Point of comparison: COc1ccc(C2c3cc4c(cc3OC3(OC)COC(=O)C23)OCO4)c(OC)c1 (stereo not drawn), TGI 90.4 µM. Against it:
- CC1=C/C(=N\NC(N)=S)C(C(O)(C(F)(F)F)C(F)(F)F)C(C)(C)C1 (stereo not drawn) — not separable, > 10 µM

Tested on: MDA-MB-231 breast
Test: inhibition of tumour cell growth, NCI panel, 48 h

Point of comparison: COc1ccc(C2c3cc4c(cc3OC3(OC)COC(=O)C23)OCO4)c(OC)c1 (stereo not drawn), TGI 99.5 µM. Against it:
- CC1=C/C(=N\NC(N)=S)C(C(O)(C(F)(F)F)C(F)(F)F)C(C)(C)C1 (stereo not drawn) — not separable, > 10 µM

Tested on: MDA-MB-435
Test: inhibition of tumour cell growth, NCI panel, 48 h

Point of comparison: COc1ccc(C2c3cc4c(cc3OC3(OC)COC(=O)C23)OCO4)c(OC)c1 (stereo not drawn), TGI 5.47 µM. Against it:
- CC1=C/C(=N\NC(N)=S)C(C(O)(C(F)(F)F)C(F)(F)F)C(C)(C)C1 (stereo not drawn) — higher, > 10 µM

Tested on: MDA-N
Test: inhibition of tumour cell growth, NCI panel, 48 h

Point of comparison: COc1ccc(C2c3cc4c(cc3OC3(OC)COC(=O)C23)OCO4)c(OC)c1 (stereo not drawn), TGI 5.24 µM. Against it:
- CC1=C/C(=N\NC(N)=S)C(C(O)(C(F)(F)F)C(F)(F)F)C(C)(C)C1 (stereo not drawn) — higher, > 10 µM

Tested on: MOLT-4 leukemia
Test: inhibition of tumour cell growth, NCI panel, 48 h

Point of comparison: COc1ccc(C2c3cc4c(cc3OC3(OC)COC(=O)C23)OCO4)c(OC)c1 (stereo not drawn), TGI 71.2 µM. Against it:
- O=S1C(=c2ccc(=C3Sc4ccccc4S3)cc2)Sc2ccccc21 (stereo not drawn) — higher, > 100 µM
- N#CC(C(=O)CCC(=O)Nc1ccc(Cl)c(Cl)c1)c1ccccc1 (stereo not drawn) — higher, > 100 µM
- O=c1c2cccnc2ncn1CCN1CCCCC1 — higher, > 100 µM
- O=C(Nc1c(O)[nH]c(=S)[nH]c1=O)c1ccccc1 — higher, > 100 µM
- COc1cc2c(cc1O)[C@H](C)C(c1ccc(OC)c(OC)c1)O2 (stereo partly drawn) — 3-fold lower, 23.9 µM
